The values below come from ChEMBL document CHEMBL1152906, “Synthesis and evaluation of carbamate prodrugs of SQ109 as antituberculosis agents” (Bioorg Med Chem Lett, 2009).

Several values for one entry are separate records, joined by “and”; a condition that tells them apart may be missing. Equal entries are not always repeated.

Broadly, the AUC is concentration integrated over time. As usually defined, the Tmax is the time from dosing to the highest level. In general, Cmax refers to the highest concentration seen after dosing. As usually defined, the bioavailability is dose-corrected exposure relative to a reference, in per cent. High values mean good availability, low ones poor availability. A word on the AUC(0-t): it is exposure summed from dosing to a finite time, without extrapolation to infinity. Low readings indicate low exposure, high ones high exposure. The CL/F is clearance divided by bioavailability, as obtained after extravascular dosing. The term half-life denotes how long it takes for the measured level to halve. Usually clearance stands for the rate of elimination divided by the concentration. The low end stands for a low capacity for elimination, the high end for a high capacity for elimination.

The nature of series [1]: Stability of compound in Sorensens buffer at pH 7.4. Type of series: physicochemical.
In series [2] the test system is Rattus norvegicus. Put plainly: Half life in rat assessed as N-Geranyl-N0-(2-adamantyl)ethane-1,2-diamine level at 13 mg/kg, po. Type of series: ADME, organism-based. Further details: dose 13 mg/kg, route oral. As to conditions: in vivo.
Series [3] relates to Rattus norvegicus. Put plainly: Oral bioavailability in rat assessed as N-Geranyl-N0-(2-adamantyl)ethane-1,2-diamine level at 13 mg/kg. Format: ADME, organism-based. As to conditions: in vivo.
The test system of series [4] is Rattus norvegicus. Put plainly: AUC(0 to 24 hrs) in rat assessed as N-Geranyl-N0-(2-adamantyl)ethane-1,2-diamine level at 13 mg/kg, po. Format: ADME, organism-based, Plasma. Set-up: time < 24 hr, dose 13 mg/kg, route oral. As to conditions: in vivo.
In series [5] the test system is Rattus norvegicus. Put plainly: Clearance in rat assessed as N-Geranyl-N0-(2-adamantyl)ethane-1,2-diamine level at 13 mg/kg, po. Format: ADME, organism-based. Set-up: dose 13 mg/kg, route oral. To be noted: in vivo.
The subject of series [6] is Rattus norvegicus. As to the kind of experiment: Tmax in rat assessed as N-Geranyl-N0-(2-adamantyl)ethane-1,2-diamine level at 13 mg/kg, po. Set-up: dose 13 mg/kg, route oral. Type of series: ADME, organism-based. As to conditions: in vivo.
The subject of series [7] is Rattus norvegicus. As to the kind of experiment: Cmax in rat assessed as N-Geranyl-N0-(2-adamantyl)ethane-1,2-diamine level at 13 mg/kg, po. Type of series: ADME, organism-based. Further details: dose 13 mg/kg, route oral. As to conditions: in vivo.
The subject of series [8] is Lung. Put plainly: Drug uptake in rat lung assessed as N-Geranyl-N0-(2-adamantyl)ethane-1,2-diamine level at 13 mg/kg, po after 10 hrs. Type of series: ADME, organism-based. Set-up: dose 13 mg/kg, route oral. As to conditions: in vivo.
Series [9] relates to Lung. As to the kind of experiment: Drug uptake in rat lung assessed as N-Geranyl-N0-(2-adamantyl)ethane-1,2-diamine level at 13 mg/kg, po after 4 hrs. Type of series: ADME, organism-based. To be noted: in vivo. Further details: dose 13 mg/kg, route oral.
The nature of series [10]: Ratio of drug level in rat lung to plasma assessed as N-Geranyl-N0-(2-adamantyl)ethane-1,2-diamine level at 13 mg/kg, po after 4 hrs. Type of series: ADME, organism-based. Further details: dose 13 mg/kg, route oral. As to conditions: other tissue.
Series [11] can be described thus: Cmax in rat at 13 mg/kg, po. Format: ADME, organism-based. As to conditions: in vivo. Further details: dose 13 mg/kg, route oral.
The nature of series [12]: Oral bioavailability in dog. Type of series: ADME, organism-based, Canis lupus familiaris. To be noted: in vivo.
Series [13] is described as follows: AUC(0 to 24 hrs) in rat at 13 mg/kg, po. Set-up: time < 24 hr, dose 13 mg/kg, route oral. As to conditions: plasma. Format: ADME, organism-based.
The nature of series [14]: Clearance in rat at 13 mg/kg, po. Further details: dose 13 mg/kg, route oral. As to conditions: in vivo. Format: ADME, organism-based.
A short description of series [15]: Cmax in rat at 1.5 mg/kg, iv. To be noted: in vivo. Format: ADME, organism-based. Set-up: dose 1.5 mg/kg, route intravenous.
Series [16] is described as follows: Tmax in rat at 13 mg/kg, po. Format: ADME, organism-based. Set-up: dose 13 mg/kg, route oral. To be noted: in vivo.
Series [17] in a line: AUC(0 to 24 hrs) in rat at 1.5 mg/kg, iv. Type of series: ADME, organism-based. As to conditions: plasma. Set-up: time < 24 hr, dose 1.5 mg/kg, route intravenous.
A short description of series [18]: Half life in rat at 1.5 mg/kg, iv. Set-up: dose 1.5 mg/kg, route intravenous. To be noted: in vivo. Type of series: ADME, organism-based.
The nature of series [19]: Oral bioavailability in rat at 13 mg/kg. Format: ADME, organism-based. As to conditions: in vivo.
Series [20] in a line: Clearance in rat at 1.5 mg/kg, iv. Type of series: ADME, organism-based. Further details: dose 1.5 mg/kg, route intravenous. To be noted: in vivo.
Series [21] can be described thus: Half life in rat at 13 mg/kg, po. Format: ADME, organism-based. Set-up: dose 13 mg/kg, route oral. As to conditions: in vivo.
The nature of series [22]: Oral bioavailability in rat. Format: ADME, organism-based. To be noted: in vivo.

As to `CC(C)=CCC/C(C)=C/CN(CCNC1C2CC3CC(C2)CC1C3)C(=O)OC(C)OC(=O)C(C)(C)C.O=C(O)/C=C\C(=O)O` (centres undefined), the Stability result in series [1] is “Unstable”.
Consider `CC(C)=CCC/C(C)=C/CN(CCNC1C2CC3CC(C2)CC1C3)C(=O)OCOC(=O)C(C)(C)C.O=C(O)/C=C\C(=O)O` (centres undefined), for which the t1/2 in series [2] amounted to 5.6 h. The F in [3] was found to be 72.6%. Further, the AUC in series [4] came out at 4224.8 ng·h/mL. Moreover, the CL in series [5] is 50 mL/min/kg. For the same molecule, the Tmax in series [6] worked out at 1.4 h. Besides, the Cmax in series [7] is 585.6 ng/mL.
For `CC(C)=CCC/C(C)=C/CN(CCNC1C2CC3CC(C2)CC1C3)C(=O)OC(C)OC(=O)C(C)C.O=C(O)/C=C\C(=O)O` (centres undefined), the Stability entry in series [1] is listed as “Unstable”.
Take `CC(C)=CCC/C(C)=C/CN(CCNC1C2CC3CC(C2)CC1C3)C(=O)OCOC(=O)C(C)C.O=C(O)/C=C\C(=O)O` (centres undefined): the t1/2 in series [2] came out at 4.58 h. In addition, the values for the Drug uptake in [8] and in [9] were 29.03 µg/g and 35.08 µg/g, respectively. Moreover, in series [10], the “fold change (FC)” value is 76 and 60. The F in series [3] is 91.4%. In series [4], the AUC was found to be 5441.2 ng·h/mL. In addition, the CL in series [5] is 41.5 mL/min/kg. The Tmax in series [6] is 1 h. Also, in series [7], the Cmax amounted to 1309.3 ng/mL.
Regarding `CC(C)=CCC/C(C)=C/CNCCNC1C2CC3CC(C2)CC1C3` (centres undefined) [SQ109], the figures for the Cmax in series [11] and in series [15] were 499 ng/mL and 889 ng/mL, respectively. In addition, the bioavailability in series [12] was found to be 3.8%; in series [19], 21.9%; in [22], 12%. Moreover, the values for the area under the curve AUC(0-t) at 24 h in series [13] and in [17] were 2330 ng·h/mL and 1230 ng·h/mL, respectively. Moreover, the CL/F in series [14] was 82.3 mL/min/kg. The Tmax in series [16] was 0.75 h. Further, the half-life in [18] is 5.06 h; in series [21], 3.71 h. Also, the clearance in series [20] was 17.5 mL/min/kg.
